From patent US20240285571A1, “METHODS OF TREATING BONE INFECTIONS” (MICROBION CORPORATION, priority 2020, published 2024)
≈ marks a conversion by molar mass, not a printed value. Where two headings read alike, the source gives them in different places.

Key:
C. parapsilosis = C. parapsilosis MMX 2323 (ATCC 22019), cited from earlier work
S. pneumoniae [1] = experiment: Broth microdilution MIC (Example 5); assay type: cell-based; details: Streptococcus pneumoniae
Method: (§1) Test and Comparator Agents: The test agents were stored at room temperature until assayed. […] The stock solutions were allowed to stand for at least 1 hr prior to use to auto-sterilize.
(§2) TestMedia: Test media were prepared and stored in accordance with guidelines from CLSI (4, 6, 7).
(§3) Broth Microdilution MC Testing (Aerobic Bacteria and Yeast): The broth microdilution assay method employed for the susceptibility testing of aerobic bacteria (excluding N. gonorrhoeae which was evaluated by agar dilution) and yeast essentially followed the procedures described by CLSI (3, 4, 7, 8) and employed automated liquid handlers to conduct serial dilutions and liquid transfers. […] These would become the ‘mother plates’ from which ‘daughter’ or test plates would be prepared. The drugs (300 μL at 40× the desired top concentration in the test plates) were dispensed into the appropriate well in Column 1 of the mother plates. The Biomek 2000 was used to make serial two-fold dilutions through Column 11 in the “mother plate”. The wells of Column 12 contained no drug and ultimately served as the organism growth control wells.
(§4) The daughter plates were prepared using the Biomek FX which transferred 5 μL of drug solution from each well of a mother plate to the corresponding well of the correct daughter plate in a single step.
(§5) A standardized inoculum of each organism was prepared per CLSI methods (3, 7). Isolated colonies of each test isolate were picked from the primary plate and a suspension was prepared to equal a 0.5 McFarland turbidity standard. Standardized suspensions were then diluted […] (1:100 for yeast, 1:20 for bacteria). After dilution, the inoculum suspensions were then transferred to compartments of sterile reservoirs divided by length (Beckman Coulter), and the Biomek 2000 was used to inoculate all plates. Daughter plates were placed on the Biomek 2000 in reverse orientation so that plates were inoculated from low to high drug concentration.
(§6) The Biomek 2000 delivered 10 μL of standardized inoculum into each well of the appropriate daughter plate for an additional 1:20 dilution.
(§7) Plates were stacked 4 high, covered with a lid on the top plate, placed into plastic bags, and incubated at 35° C. for approximately 24-48 hr for all yeast isolates and 16-24 hr for aerobic bacteria. Plates were viewed from the bottom using a plate viewer. […] MIC endpoints for the test agents and control compounds were read per CLSI criteria (3, 7).

S. pyogenes = experiment: Broth microdilution MIC (Example 5); assay type: cell-based
Method: as §1, §2, §3, §4, §5, §6, §7

S. agalactiae = experiment: Broth microdilution MIC (Example 5); assay type: cell-based; details: Streptococcus agalactiae
Method: as §1, §2, §3, §4, §5, §6, §7

E. faecium = experiment: Broth microdilution MIC (Example 5); assay type: cell-based
Method: as §1, §2, §3, §4, §5, §6, §7

E. faecalis = experiment: Broth microdilution MIC (Example 5); assay type: cell-based, Enterococcus faecalis; details: VRE
Method: as §1, §2, §3, §4, §5, §6, §7

S. pneumoniae [2] = details: S. pneumoniae MMX 6837 (ATCC 49619); cited from earlier work
S. aureus = experiment: Broth microdilution MIC (Example 5); assay type: cell-based, Staphylococcus aureus; details: Staphylococcus aureus
Method: as §1, §2, §3, §4, §5, §6, §7

[3] = test system: vancomycin-intermediate Staphylococcus aureus; experiment: Broth microdilution MIC (Example 6); assay type: cell-based; details: Staphylococcus aureus, NRS 13 / VISA, read-out: MIC values
Method: Test Compounds: The test agents BisEDT (MB-1-B3; Lot No. ED268-1-11-01), MB-2B, and MB-6 were stored at room temperature, in the dark, until assayed. The solvent and diluent for the test agents was DMSO (Sigma; St. Louis, MO; Lot No. SHBB9319V) and the prepared stock concentration was 6,464 μg/mL (101× the final test concentration).
Test compounds were evaluated at a concentration range of 0.06-64 μg/mL. For Gram-negative test isolates, amikacin and ceftazidime (alone and with clavulanate at a fixed concentration of 4 μg/mL) were evaluated over a concentration range of 0.06-64 μg/mL; meropenem and levofloxacin were evaluated over a concentration range of 0.008-8 μg/mL. For the testing of S. aureus, clindamycin, daptomycin, levofloxacin and vancomycin were evaluated at a concentration range of 0.008-8 μg/mL; linezolid was tested from 0.03-32 μg/mL.
Media: Cation-adjusted Mueller Hinton broth (CAMHB; BD; Lot No. 8190586) was used as the medium for testing (2, 3). For testing daptomycin, calcium was supplemented with […] Ca^2+, resulting in a final concentration of […] Ca^2+ (2, 3).
MIC Assay Procedure: MIC values were determined using a broth microdilution procedure described by CLSI (2, 3). Automated liquid handlers (Multidrop 384, Labsystems, Helsinki, Finland; Biomek 2000 and Biomek F X, Beckman Coulter, Fullerton CA) were used to conduct serial dilutions and liquid transfers.
To prepare the drug mother plates, which would provide the serial drug dilutions for the replicate daughter plates, the wells of columns 2 through 12 of standard 96-well microdilution plates (Costar 3795) were filled with 150 μl of the appropriate diluent for each row of drug. The test articles and comparator compounds (300 μl at 101× the highest concentration to be tested) were dispensed into the appropriate wells in column 1. The Biomek 2000 was then used to make 2-fold serial dilutions in the mother plates from column 1 through column 11. The wells of column 12 contained no drug and served as the organism growth control wells for the assay.
The daughter plates were loaded with 190 μL per well of RPMI using the Multidrop 384. The test panels were prepared on the Biomek FX instrument which transferred 2 μL of drug solution from each well of a mother plate to the corresponding well of each daughter plate in a single step.
A standardized inoculum of each test organism was prepared per CLSI methods to equal a 0.5 McFarland standard, followed by a dilution of 1:20. The plates were then inoculated with 10 μL of the diluted inoculum using the Biomek 2000 from low to high drug concentration resulting in a final concentration of approximately 5×10^5 CFU/mL.
Plates were stacked 3-4 high, covered with a lid on the top plate, placed into plastic bags, and incubated at 35° C. for 16 to 20 hr (vancomycin was read for S. aureus after 24 hr incubation time). The MIC was recorded as the lowest concentration of drug that inhibited visible growth of the organism.

OC(Cn1cncn1)(Cn1cncn1)c1ccc(F)cc1F [Fluconazole]
CLSI QC range of MIC (C. parapsilosis; 24 hr): 0.5 to 4 mg/L | CLSI QC range of MIC (C. parapsilosis; 48 hr): 1 to 4 mg/L

CN[C@H](CC(C)C)C(=O)N[C@H]1C(=O)N[C@@H](CC(N)=O)C(=O)N[C@H]2C(=O)N[C@H]3C(=O)N[C@H](C(=O)N[C@H](C(=O)O)c4cc(O)cc(O)c4-c4cc3ccc4O)[C@H](O)c3ccc(c(Cl)c3)Oc3cc2cc(c3O[C@@H]2O[C@H](CO)[C@@H](O)[C@H](O)[C@H]2O[C@H]2C[C@](C)(N)[C@H](O)[C@H](C)O2)Oc2ccc(cc2Cl)[C@H]1O [Vancomycin]
MIC (S. pneumoniae [1]; ATCC49619, S. pneumoniae MMX 6837 (ATCC 49619), QC): 0.25 mg/L (≈ 0.173 µM) | MIC (S. pneumoniae [1]; S. pneumoniae MMX 880, LevR SXTR CCR EryR PenR): 0.5 mg/L (≈ 0.345 µM) | MIC (S. pneumoniae [1]; S. pneumoniae MMX 937, MemR SXTR CCR EryR PenR): 0.5 mg/L (≈ 0.345 µM) | MIC (S. pneumoniae [1]; S. pneumoniae MMX 3959, CCR EryR): 0.5 mg/L (≈ 0.345 µM) | MIC (S. pneumoniae [1]; S. pneumoniae MMX 5440, MemR SXTR CCR EryR PenR): 0.25 mg/L (≈ 0.173 µM) | MIC (S. pneumoniae [1]; S. pneumoniae MMX 5445, MemR SXTR CCR EryR PenR): 0.25 mg/L (≈ 0.173 µM) | MIC (S. pneumoniae [1]; S. pneumoniae MMX 8133, MemR SXTR CCR EryR PenR): 0.25 mg/L (≈ 0.173 µM) | MIC (S. pyogenes; S. pyogenes MMX 3820, ERYR CLIR): 0.5 mg/L (≈ 0.345 µM) | MIC (S. pyogenes; S. pyogenes MMX 3919, ERYR): 0.5 mg/L (≈ 0.345 µM) | MIC (S. pyogenes; S. pyogenes MMX 3929, ERYR CCR): 0.5 mg/L (≈ 0.345 µM) | MIC (S. pyogenes; S. pyogenes MMX 5091, ERYR CCR): 0.5 mg/L (≈ 0.345 µM) | MIC (S. pyogenes; Streptococcus pyogenes): 0.5 mg/L (≈ 0.345 µM) | MIC (S. agalactiae; S. agalactiae MMX 3741, ERYR CCR): 0.5 mg/L (≈ 0.345 µM) | MIC (S. agalactiae; S. agalactiae MMX 3743, ERYR CCR): 0.5 mg/L (≈ 0.345 µM) | MIC (S. agalactiae; S. agalactiae MMX 4077, ERYR CCR): 0.5 mg/L (≈ 0.345 µM) | MIC (S. agalactiae; S. agalactiae MMX 4079, ERYR CCR PenR MEMR): 2 mg/L (≈ 1.38 µM) | MIC (S. agalactiae; S. agalactiae MMX 4086, ERYR CCR): 1 mg/L (≈ 0.69 µM) | MIC (E. faecium; E. faecium MMX 485, VRE vanA): >64 mg/L | MIC (E. faecium; Enterococcus faecium, VRE): > 64 mg/L | MIC (E. faecalis; E. faecalis MMX 8961): >64 mg/L | MIC (E. faecalis; E. faecalis MMX 8962): >64 mg/L | MIC (E. faecalis; Enterococcus faecalis): > 64 mg/L | CLSI QC range of MIC (S. pneumoniae [2]): (0.12-0.5) μg/mL | MIC (S. aureus; ATCC 29213 / MSSA, S. aureus MMX 101 (ATCC 29213), QC, MSSA): 1 mg/L (≈ 0.69 µM) | MIC (S. aureus; MRSA, S. aureus MMX 5373): 2 mg/L (≈ 1.38 µM) | MIC (S. aureus; MRSA, S. aureus MMX 6311): 0.25 mg/L (≈ 0.173 µM) | MIC (S. aureus; MRSA, S. aureus MMX 9203): 2 mg/L (≈ 1.38 µM) | MIC (S. aureus; MRSA, S. aureus MMX 9204): 1 mg/L (≈ 0.69 µM) | MIC (S. aureus; MRSA, S. aureus MMX 9205): 2 mg/L (≈ 1.38 µM) | MIC [3]: 2 mg/L
